ChEMBL document CHEMBL4507329, “Data for DCP probe BTZO-1” (2021)

Legend:
[1] = system: Tyrosine-protein kinase ABL1 (Homo sapiens), P00519 [H396P]; details: Compound concentration 1000.0 nM
[2] = molecular target: Serine/threonine-protein kinase 36 (Homo sapiens) (UniProt Q9NRP7); details: Compound concentration 1000.0 nM
[3] = molecular target: Ribosomal protein S6 kinase alpha-5 (Homo sapiens) (UniProt O75582); details: Compound concentration 1000.0 nM
[4] = molecular target: Glycogen synthase kinase-3 beta (Homo sapiens) (UniProt P49841); details: Compound concentration 1000.0 nM
[5] = molecular target: High affinity nerve growth factor receptor (Homo sapiens) (UniProt P04629); details: Compound concentration 1000.0 nM
[6] = molecular target: Tyrosine-protein kinase receptor Tie-1 (Homo sapiens) (UniProt P35590); details: Compound concentration 1000.0 nM
[7] = molecular target: Hepatocyte growth factor receptor (Homo sapiens) (UniProt P08581); details: Compound concentration 1000.0 nM
[8] = molecular target: Receptor tyrosine-protein kinase erbB-2 (Homo sapiens) (UniProt P04626); details: Compound concentration 1000.0 nM
[9] = molecular target: Mitogen-activated protein kinase 6 (Homo sapiens) (UniProt Q16659); details: Compound concentration 1000.0 nM
[10] = molecular target: Tyrosine-protein kinase Fgr (Homo sapiens) (UniProt P09769); details: Compound concentration 1000.0 nM
[11] = molecular target: SNF-related serine/threonine-protein kinase (Homo sapiens) (UniProt Q9NRH2); details: Compound concentration 1000.0 nM
[12] = molecular target: Mitogen-activated protein kinase kinase kinase 20 (Homo sapiens) (UniProt Q9NYL2); details: Compound concentration 1000.0 nM
[13] = molecular target: Cyclin-dependent kinase 18 (Homo sapiens) (UniProt Q07002); details: Compound concentration 1000.0 nM
[14] = molecular target: Dual specificity protein kinase CLK4 (Homo sapiens) (UniProt Q9HAZ1); details: Compound concentration 1000.0 nM
[15] = molecular target: Serine/threonine-protein kinase WNK2 (Homo sapiens) (UniProt Q9Y3S1); details: Compound concentration 1000.0 nM
[16] = molecular target: Tyrosine-protein kinase receptor TYRO3 (Homo sapiens) (UniProt Q06418); details: Compound concentration 1000.0 nM
[17] = molecular target: Alpha-2B adrenergic receptor (Homo sapiens) (UniProt P18089); details: Compound concentration 10.0 uM
[18] = molecular target: Serine/threonine-protein kinase tousled-like 2 (Homo sapiens) (UniProt Q86UE8); details: Compound concentration 1000.0 nM
[19] = molecular target: Ribosomal protein S6 kinase alpha-6 (Homo sapiens) (UniProt Q9UK32); details: Compound concentration 1000.0 nM
[20] = molecular target: RAF proto-oncogene serine/threonine-protein kinase (Homo sapiens) (UniProt P04049); details: Compound concentration 1000.0 nM
[21] = molecular target: Epidermal growth factor receptor (Homo sapiens) (UniProt P00533); details: Compound concentration 1000.0 nM
[22] = molecular target: Phosphatidylinositol 4,5-bisphosphate 3-kinase catalytic subunit beta isoform (Homo sapiens) (UniProt P42338); details: Compound concentration 1000.0 nM
[23] = molecular target: Serine/threonine-protein kinase tousled-like 1 (Homo sapiens) (UniProt Q9UKI8); details: Compound concentration 1000.0 nM
[24] = system: Epidermal growth factor receptor (Homo sapiens), P00533 [L858R]; details: Compound concentration 1000.0 nM
[25] = molecular target: Delta-type opioid receptor (Homo sapiens) (UniProt P41143); details: Compound concentration 10.0 uM
Sequence of Delta-type opioid receptor (Homo sapiens) (P41143 whole entry): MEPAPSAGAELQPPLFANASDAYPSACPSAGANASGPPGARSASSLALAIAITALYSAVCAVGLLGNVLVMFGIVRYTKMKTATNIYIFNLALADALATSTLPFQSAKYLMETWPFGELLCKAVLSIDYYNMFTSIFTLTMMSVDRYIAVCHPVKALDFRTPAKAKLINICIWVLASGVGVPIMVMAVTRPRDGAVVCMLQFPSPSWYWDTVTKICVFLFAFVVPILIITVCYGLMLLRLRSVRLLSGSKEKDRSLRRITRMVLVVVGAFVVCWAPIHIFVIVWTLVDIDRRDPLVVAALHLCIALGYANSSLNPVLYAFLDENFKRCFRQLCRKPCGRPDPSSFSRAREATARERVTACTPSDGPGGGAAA

[26] = molecular target: Serine/threonine-protein kinase RIO3 (Homo sapiens) (UniProt O14730); details: Compound concentration 1000.0 nM
[27] = molecular target: LIM domain kinase 2 (Homo sapiens) (UniProt P53671); details: Compound concentration 1000.0 nM
Sequence of LIM domain kinase 2 (Homo sapiens) (P53671 whole entry, looked up, the tested form may be a part): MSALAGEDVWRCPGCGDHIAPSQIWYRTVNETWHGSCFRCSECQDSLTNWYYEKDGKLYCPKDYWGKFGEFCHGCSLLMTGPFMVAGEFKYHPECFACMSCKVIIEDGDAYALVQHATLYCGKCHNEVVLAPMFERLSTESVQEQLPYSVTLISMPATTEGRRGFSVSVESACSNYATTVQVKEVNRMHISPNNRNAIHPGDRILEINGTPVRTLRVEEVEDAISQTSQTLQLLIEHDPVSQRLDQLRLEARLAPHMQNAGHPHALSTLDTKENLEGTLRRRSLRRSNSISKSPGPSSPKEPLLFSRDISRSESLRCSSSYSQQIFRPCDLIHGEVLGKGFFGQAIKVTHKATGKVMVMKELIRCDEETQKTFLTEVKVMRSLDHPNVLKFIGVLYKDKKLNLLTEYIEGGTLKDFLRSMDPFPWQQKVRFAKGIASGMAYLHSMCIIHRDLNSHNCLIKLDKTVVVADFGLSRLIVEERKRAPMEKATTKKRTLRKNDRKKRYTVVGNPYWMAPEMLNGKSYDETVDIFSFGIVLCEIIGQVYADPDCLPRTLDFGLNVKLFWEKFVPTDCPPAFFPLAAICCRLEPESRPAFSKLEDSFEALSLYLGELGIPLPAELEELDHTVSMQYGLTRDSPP

[28] = molecular target: Cyclin-dependent kinase 15 (Homo sapiens) (UniProt Q96Q40); details: Compound concentration 1000.0 nM
[29] = molecular target: Fibroblast growth factor receptor 1 (Homo sapiens) (UniProt P11362); details: Compound concentration 1000.0 nM
[30] = system: Tyrosine-protein kinase ABL1 (Homo sapiens), P00519 [E255K]; details: Compound concentration 1000.0 nM
[31] = system: Receptor-type tyrosine-protein kinase FLT3 (Homo sapiens), P36888 [D835H]; details: Compound concentration 1000.0 nM
[32] = system: Receptor-type tyrosine-protein kinase FLT3 (Homo sapiens), P36888 [D835V]; details: Compound concentration 1000.0 nM
[33] = molecular target: Rhodopsin kinase GRK7 (Homo sapiens) (UniProt Q8WTQ7); details: Compound concentration 1000.0 nM
[34] = molecular target: Myosin light chain kinase, smooth muscle (Homo sapiens) (UniProt Q15746); details: Compound concentration 1000.0 nM
Sequence of Myosin light chain kinase, smooth muscle (Homo sapiens) (Q15746 whole entry): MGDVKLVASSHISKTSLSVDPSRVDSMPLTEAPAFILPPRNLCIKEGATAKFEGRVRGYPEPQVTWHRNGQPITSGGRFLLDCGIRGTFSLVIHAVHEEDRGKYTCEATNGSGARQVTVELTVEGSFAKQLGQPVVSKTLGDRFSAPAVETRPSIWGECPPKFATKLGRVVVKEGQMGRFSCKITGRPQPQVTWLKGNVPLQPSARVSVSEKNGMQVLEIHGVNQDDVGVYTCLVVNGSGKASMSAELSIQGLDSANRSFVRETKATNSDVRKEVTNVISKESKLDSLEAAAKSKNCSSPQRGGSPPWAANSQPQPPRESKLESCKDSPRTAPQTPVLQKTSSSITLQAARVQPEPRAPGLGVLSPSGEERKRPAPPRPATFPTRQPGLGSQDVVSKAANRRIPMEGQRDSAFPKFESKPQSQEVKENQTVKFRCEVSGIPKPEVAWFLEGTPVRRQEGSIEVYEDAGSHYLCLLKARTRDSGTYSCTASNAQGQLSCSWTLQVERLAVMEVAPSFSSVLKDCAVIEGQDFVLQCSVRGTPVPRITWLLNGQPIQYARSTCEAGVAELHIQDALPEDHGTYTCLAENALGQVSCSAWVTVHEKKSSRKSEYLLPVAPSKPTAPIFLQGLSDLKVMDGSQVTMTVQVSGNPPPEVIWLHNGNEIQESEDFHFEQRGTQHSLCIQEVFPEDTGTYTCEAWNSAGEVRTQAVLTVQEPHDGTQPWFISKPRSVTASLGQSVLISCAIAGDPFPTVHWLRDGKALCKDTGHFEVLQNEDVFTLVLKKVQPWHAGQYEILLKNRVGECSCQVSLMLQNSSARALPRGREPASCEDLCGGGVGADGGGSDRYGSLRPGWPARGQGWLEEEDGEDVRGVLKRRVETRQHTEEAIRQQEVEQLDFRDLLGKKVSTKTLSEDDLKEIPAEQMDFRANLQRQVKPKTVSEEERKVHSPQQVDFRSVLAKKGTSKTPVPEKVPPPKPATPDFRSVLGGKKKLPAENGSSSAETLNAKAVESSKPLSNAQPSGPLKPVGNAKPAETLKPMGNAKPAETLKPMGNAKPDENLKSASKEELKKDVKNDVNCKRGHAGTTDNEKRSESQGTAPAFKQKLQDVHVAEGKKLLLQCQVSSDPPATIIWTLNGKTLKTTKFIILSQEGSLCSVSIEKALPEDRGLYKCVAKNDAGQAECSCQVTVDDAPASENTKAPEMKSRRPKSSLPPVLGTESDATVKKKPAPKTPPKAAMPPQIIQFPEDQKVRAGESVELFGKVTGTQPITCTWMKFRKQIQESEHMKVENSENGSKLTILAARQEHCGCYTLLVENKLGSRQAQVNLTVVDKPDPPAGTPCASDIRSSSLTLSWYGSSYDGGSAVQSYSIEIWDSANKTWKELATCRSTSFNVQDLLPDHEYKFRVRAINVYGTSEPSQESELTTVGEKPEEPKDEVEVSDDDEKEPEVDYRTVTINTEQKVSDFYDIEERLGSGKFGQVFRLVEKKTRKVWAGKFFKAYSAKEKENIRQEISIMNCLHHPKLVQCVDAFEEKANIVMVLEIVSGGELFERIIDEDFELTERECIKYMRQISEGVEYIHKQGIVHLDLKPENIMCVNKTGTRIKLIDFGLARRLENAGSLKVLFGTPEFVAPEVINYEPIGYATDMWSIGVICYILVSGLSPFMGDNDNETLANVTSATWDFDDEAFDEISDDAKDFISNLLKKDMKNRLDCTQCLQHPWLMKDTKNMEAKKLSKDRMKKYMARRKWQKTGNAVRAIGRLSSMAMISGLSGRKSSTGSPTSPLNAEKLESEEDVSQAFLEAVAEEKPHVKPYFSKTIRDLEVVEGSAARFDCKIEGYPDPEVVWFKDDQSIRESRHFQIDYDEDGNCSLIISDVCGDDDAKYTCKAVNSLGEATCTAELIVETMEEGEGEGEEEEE

[35] = molecular target: Serine/threonine-protein kinase TAO2 (Homo sapiens) (UniProt Q9UL54); details: Compound concentration 1000.0 nM
[36] = molecular target: Tyrosine-protein kinase ABL1 (Homo sapiens) (UniProt P00519); details: Compound concentration 1000.0 nM
[37] = molecular target: Ephrin type-B receptor 4 (Homo sapiens) (UniProt P54760); details: Compound concentration 1000.0 nM
[38] = molecular target: Calcium/calmodulin-dependent protein kinase type II subunit alpha (Homo sapiens) (UniProt Q9UQM7); details: Compound concentration 1000.0 nM
Sequence of Calcium/calmodulin-dependent protein kinase type II subunit alpha (Homo sapiens) (Q9UQM7 whole entry): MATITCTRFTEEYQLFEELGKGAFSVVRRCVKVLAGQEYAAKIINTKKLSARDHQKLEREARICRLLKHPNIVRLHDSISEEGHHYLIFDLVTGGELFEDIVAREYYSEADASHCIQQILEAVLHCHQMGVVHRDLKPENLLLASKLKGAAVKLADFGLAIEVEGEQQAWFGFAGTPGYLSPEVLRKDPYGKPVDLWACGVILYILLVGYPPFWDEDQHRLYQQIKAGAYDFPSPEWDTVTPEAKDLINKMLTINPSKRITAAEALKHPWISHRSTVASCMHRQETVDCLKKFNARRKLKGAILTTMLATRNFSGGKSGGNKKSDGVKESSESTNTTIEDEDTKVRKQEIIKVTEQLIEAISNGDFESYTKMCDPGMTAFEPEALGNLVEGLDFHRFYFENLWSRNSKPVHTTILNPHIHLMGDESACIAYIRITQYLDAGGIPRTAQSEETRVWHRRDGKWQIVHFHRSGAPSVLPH

[39] = molecular target: Alpha-2A adrenergic receptor (Homo sapiens) (UniProt P08913); details: Compound concentration 10.0 uM
Sequence of Alpha-2A adrenergic receptor (Homo sapiens) (P08913 whole entry): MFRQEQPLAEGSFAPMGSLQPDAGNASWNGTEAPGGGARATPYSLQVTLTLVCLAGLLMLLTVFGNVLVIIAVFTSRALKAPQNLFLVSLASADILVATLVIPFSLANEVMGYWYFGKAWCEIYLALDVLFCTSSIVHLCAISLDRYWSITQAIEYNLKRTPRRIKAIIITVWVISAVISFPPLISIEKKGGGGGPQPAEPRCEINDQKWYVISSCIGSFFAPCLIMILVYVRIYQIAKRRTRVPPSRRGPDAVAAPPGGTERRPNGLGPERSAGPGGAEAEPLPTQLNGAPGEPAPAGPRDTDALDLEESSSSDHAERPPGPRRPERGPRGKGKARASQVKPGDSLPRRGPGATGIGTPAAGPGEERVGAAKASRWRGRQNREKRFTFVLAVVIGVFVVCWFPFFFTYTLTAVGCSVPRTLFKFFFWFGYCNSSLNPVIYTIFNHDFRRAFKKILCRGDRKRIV

[40] = molecular target: Serine/threonine-protein kinase mTOR (Homo sapiens) (UniProt P42345); details: Compound concentration 1000.0 nM
[41] = molecular target: Tyrosine-protein kinase FRK (Homo sapiens) (UniProt P42685); details: Compound concentration 1000.0 nM
[42] = molecular target: Ephrin type-A receptor 7 (Homo sapiens) (UniProt Q15375); details: Compound concentration 1000.0 nM
[43] = molecular target: Glycogen synthase kinase-3 alpha (Homo sapiens) (UniProt P49840); details: Compound concentration 1000.0 nM
Sequence of Glycogen synthase kinase-3 alpha (Homo sapiens) (P49840 2-483 limits assumed): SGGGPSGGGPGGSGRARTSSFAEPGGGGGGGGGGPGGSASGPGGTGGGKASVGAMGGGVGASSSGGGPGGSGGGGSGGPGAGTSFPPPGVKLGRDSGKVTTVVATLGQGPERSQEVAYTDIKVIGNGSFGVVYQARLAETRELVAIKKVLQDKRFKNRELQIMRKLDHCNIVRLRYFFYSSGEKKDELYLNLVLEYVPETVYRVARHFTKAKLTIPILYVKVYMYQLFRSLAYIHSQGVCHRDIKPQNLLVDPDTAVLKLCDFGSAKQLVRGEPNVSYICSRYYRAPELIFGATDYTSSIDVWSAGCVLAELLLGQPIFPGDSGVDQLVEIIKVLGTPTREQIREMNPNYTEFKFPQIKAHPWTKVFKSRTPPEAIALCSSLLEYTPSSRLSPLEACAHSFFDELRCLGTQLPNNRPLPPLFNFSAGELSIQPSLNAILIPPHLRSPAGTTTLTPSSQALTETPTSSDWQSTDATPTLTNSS

[44] = molecular target: Tyrosine-protein kinase TXK (Homo sapiens) (UniProt P42681); details: Compound concentration 1000.0 nM
[45] = molecular target: Tyrosine-protein kinase Yes (Homo sapiens) (UniProt P07947); details: Compound concentration 1000.0 nM
Sequence of Tyrosine-protein kinase Yes (Homo sapiens) (P07947 2-543 limits assumed): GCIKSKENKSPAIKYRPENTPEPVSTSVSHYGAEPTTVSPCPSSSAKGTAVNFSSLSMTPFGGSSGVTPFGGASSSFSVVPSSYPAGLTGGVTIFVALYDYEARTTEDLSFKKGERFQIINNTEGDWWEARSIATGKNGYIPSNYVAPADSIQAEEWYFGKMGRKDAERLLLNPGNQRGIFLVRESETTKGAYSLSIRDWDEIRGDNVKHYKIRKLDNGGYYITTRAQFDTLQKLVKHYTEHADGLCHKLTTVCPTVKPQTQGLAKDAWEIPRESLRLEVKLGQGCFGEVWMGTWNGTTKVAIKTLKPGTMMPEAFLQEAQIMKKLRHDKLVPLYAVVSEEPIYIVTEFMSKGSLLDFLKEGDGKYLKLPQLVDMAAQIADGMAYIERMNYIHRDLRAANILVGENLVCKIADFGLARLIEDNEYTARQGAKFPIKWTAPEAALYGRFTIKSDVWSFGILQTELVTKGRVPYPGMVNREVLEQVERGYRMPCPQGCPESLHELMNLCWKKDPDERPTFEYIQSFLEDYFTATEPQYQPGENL

[46] = molecular target: Serine/threonine-protein kinase BRSK1 (Homo sapiens) (UniProt Q8TDC3); details: Compound concentration 1000.0 nM

O=c1nc(-c2ccccn2)sc2ccccc12 [BTZO-1]
inactive: residual activity [1] 99% | residual activity [2] 82% | residual activity [3] 94% | residual activity [4] 74% | residual activity [5] 100% | residual activity [6] 91% | residual activity [7] 74% | residual activity [8] 65% | residual activity [9] 73% | residual activity [10] 100% | residual activity [11] 100% | residual activity [12] 87% | residual activity [13] 94% | residual activity [14] 90% | residual activity [15] 100% | residual activity [16] 80% | inhibition [17] 17% | residual activity [18] 96% | residual activity [19] 95% | residual activity [20] 100% | residual activity [21] 70% | residual activity [22] 100% | residual activity [23] 93% | residual activity [24] 81% | inhibition [25] 4.81% | residual activity [26] 99% | residual activity [27] 100% | residual activity [28] 75% | residual activity [29] 100% | residual activity [30] 100% | residual activity [31] 74% | residual activity [32] 100% | residual activity [33] 89% | residual activity [34] 67% | residual activity [35] 73% | residual activity [36] 93% | residual activity [37] 100% | residual activity [38] 100% | inhibition [39] 0.132% | residual activity [40] 100% | residual activity [41] 100% | residual activity [42] 80% | residual activity [43] 82% | residual activity [44] 81% | residual activity [45] 100% | residual activity [46] 91%

O=C1NC(c2ccccn2)Sc2ccccc21 (configuration not stated) [BTZO-4]
inactive: residual activity [1] 84% | residual activity [2] 79% | residual activity [3] 95% | residual activity [4] 65% | residual activity [5] 100% | residual activity [6] 65% | residual activity [7] 68% | residual activity [8] 71% | residual activity [9] 72% | residual activity [10] 100% | residual activity [11] 94% | residual activity [12] 100% | residual activity [13] 93% | residual activity [14] 97% | residual activity [15] 100% | residual activity [16] 76% | inhibition [17] -5.58% | residual activity [18] 96% | residual activity [19] 96% | residual activity [20] 100% | residual activity [21] 82% | residual activity [22] 100% | residual activity [23] 94% | residual activity [24] 86% | inhibition [25] -0.624% | residual activity [26] 91% | residual activity [27] 92% | residual activity [28] 63% | residual activity [29] 85% | residual activity [30] 77% | residual activity [31] 65% | residual activity [32] 100% | residual activity [33] 86% | residual activity [34] 77% | residual activity [35] 71% | residual activity [36] 69% | residual activity [37] 100% | residual activity [38] 100% | inhibition [39] 12.7% | residual activity [40] 100% | residual activity [41] 100% | residual activity [42] 72% | residual activity [43] 73% | residual activity [44] 100% | residual activity [45] 100% | residual activity [46] 76%
